# Laboratory results from patent US20020192274A1, “pH sensitive liposomal drug delivery” (priority 2001, published 2002).
# Key:
# TNF-α [1] = assay: LPS-induced TNF-α secretion by liver slices after in vivo ASO administration (ELISA); parameters: species or system rat; details: for inhibition of LPS-induced TNF-α production in liver slices: vs empty liposomes
# Description: FIG. 4. In vivo efficacy of ASO TJU-2755 (SEQ. ID. NO: 1) against TNF-α in the liver: Effect of duration post-injection. Rats are intravenously injected with pH-sensitive liposomes encapsulated with TJU-2755 (1.5-1.75 mg/Kg body wt). At different times (24, 48 and 72 h) after ASO administration, LPS (50 μg/Kg body weight for 90 minutes) is administered intravenously (i.v.) and the animals are sacrificed 90 min after this challenge. Liver is excised, slices prepared and incubated for 2 h (infra). The amount of TNF-α released into the medium is measured by ELISA. The TNF-α values (bars) from the ASO-treated animals are normalized to control values (control=100) obtained from body weight-matched rats treated similarly except that they are injected with “empty” liposomes. Values indicated are means ±S.E. of (n) determinations. Number of animals, 24 h, n=3; 48 h, n=4, 72 h, n=3. * p<0.05 (vs Control).
# FIG. 5. In vivo efficacy of ASO TJU-2755 (SEQ. ID. NO: 1) against TNF-α in the liver: Effect of multiple injections. Rats are injected with either one or two daily doses of ASO (1.5-1.75 mg/Kg body wt) encapsulated liposomes. […] The amount of TNF-α produced by liver slices is determined as described in legend to FIG. 4 (supra). Bars indicate the amount of TNF-α produced by ASO-treated animals, expressed as percent of controls injected with “empty” liposomes and are the means ±S.E. of n=4 for single dose and n=7 for two doses. *p<0.05, **p<0.01 vs control). The absolute values (Mean) of TNF-α for control and TNF-2755-treated livers (for two daily doses) were 17,748 and 7,500 pg/g liver, respectively.
# Following the in vivo administration of LPS, the production of TNF-α in the liver is assessed by measuring the amount of TNF-α secreted by liver slices. Liver slices are prepared and incubated in culture medium according to the procedure described by Videla and Israel (Videla, L., Israel, Y., Biochem J. 118: 275-281, 1970) with modifications, which include the addition of insulin and fetal calf serum to the culture medium. Briefly, liver slices of uniform thickness (10×4×0.4 mm) are prepared from the mid lobe and initially rinsed in ice-cold William's E medium. The slices (2 slices per dish) are transferred to culture dishes (35 mm) containing 2 ml of fresh medium (90% William's E, 10% fetal calf serum and 2 units of insulin/100 ml) and incubated at 37° C. for 2 h. The amount of TNF-α released into the medium is measured (infra).
# (§1) ELISA is conducted by using Cytoscreen KRC3012 kits (Biosource, Camarillo, Calif.) according to the manufacturer's specifications. Supernatants containing high TNF-α levels are diluted prior to the assay to assure assay results within the standard curve.
# (§2) Rats are injected intravenously with two daily doses (1.5 mg/Kg body wt.) of ASO TJU-2755 (SEQ. ID. NO: 1) encapsulated in pH-stable liposomes and challenged with LPS (50 μg/Kg body wt.) at 48 h post injection. Animals are sacrificed 90 minutes post-LPS. The amount of TNF-α in plasma, as well as that secreted by liver slices, is determined exactly as described for pH-sensitive liposomes (supra) and legends to FIG. 4 and FIG. 5. Body-weight matched rats injected with two doses of “empty” liposomes and challenged similarly with LPS constituted the control group. All TNF-α values are normalized to the corresponding control groups (=100). Values are expressed as mean ±S.E of (n) determinations.
# TNF-α [2] = assay: Plasma TNF-α after LPS challenge following in vivo ASO administration (ELISA); parameters: species or system rat
# Description: FIG. 6. […] Rats are injected with either one (n=3), two (n=8) or three (n=1) daily doses of TJU-2755 (SEQ. ID. NO: 1) and administered LPS (50 μg/Kg body wt.) at 48 h after the last injection of the antisense formulation as described in legend to FIG. 5. […] Plasma TNF-α is determined by ELISA. Bars indicate values from ASO-treated animals expressed as percent of corresponding controls (animals dosed with “empty liposomes”) and are the means ±S.E of (n) determinations. ***p<0.001 between rats injected two daily doses of ASO and controls. The absolute (Mean) values of TNF-α for control and TJU-2755 (SEQ. ID. NO: 1)-treated plasma samples (for two daily doses) were 34,375 and 9,731 (pg/ml plasma) respectively.
# as §1, §2
# TNF-α mRNA = assay: Tissue levels of TNF-α mRNA by Northern hybridization; type: in vivo, rat; details: pH-sensitive liposomes, two daily doses 1.5 mg/Kg, LPS 48 h post ASO, normalized to GAPDH, vs empty liposomes
# Description: FIG. 8. Effect of ASO TJU-2755 (SEQ. ID. NO: 1) in vivo on TNF-α mRNA. Rats are injected with two daily doses (1.5 mg/Kg body wt.) of ASO and injected with LPS (50 μg/Kg body wt.) 48 h post ASO administration as described in legend to FIG. 5. Liver (n=5) and spleen (n=4) are processed for the extraction of mRNA fractions. Steady-state levels of TNF-α mRNA are determined by Northern hybridization and normalized to the levels of GAPDH mRNA. Bars indicate mRNA (Means ±S.E) of (n) values from ASO-treated samples, expressed as percent of control values derived from rats treated with “empty” liposomes. *p<0.05, **p<0.01 (Vs control).
# Liver and spleen samples (≈100 mg) are homogenized in 3 volumes of cold TRI Reagent (Molecular Research Center, Inc.). […] The intactness of total RNA is measured by agarose (1%) gel electrophoresis by visualizing the intactness of ribosomal RNA (28S, 18S). […] The purity of the isolated mRNA is monitored by analyzing the absorption ratios of 260 to 280 (nm), which always ranged from 1.8-2.0.
# Samples of mRNA are run on 1% agarose gel electrophoresis, vacuum transferred (BIORAD Model 785 Vacuum Blotter) onto a nitrocellulose membrane (Amersham), and crosslinked (Statagene UV Stratalinker 2400). […] The autoradiograms are quantitated using an ultrascan laser densitometer. […]
# TNF-α [3] = details: primary Kupffer cells ex vivo; cited from earlier work
# [4] = pH-stable liposomes, two daily doses 1.5 mg/Kg i.v., LPS at 48 h, mean ± S.E
substance,measurement,setting,value
"TJU-2755: phosphorothioate 21-mer antisense oligonucleotide 5′-TGATCCACTCCCCCCTCCACT-3′, complementary to the 3′-untranslated region of rat TNF-α mRNA (all phosphorothioate, sugars by position and methylation of C not given here)",inhibitory effect on LPS-induced TNF-α production,"TNF-α [1]; ASO delivered with pH-stable liposomes (liver and plasma, Table 1)",no inhibitory effect
same,inhibition of LPS-induced TNF-α production in liver slices,"TNF-α [1]; pH-sensitive liposomes, single i.v. dose, LPS 48 h post injection",~30%
same,inhibition of LPS-induced TNF-α production in liver slices,"TNF-α [1]; pH-sensitive liposomes, two daily doses, LPS 48 h after last injection",50%
same,"TNF-α produced by liver slices, absolute mean","TNF-α [1]; pH-sensitive liposomes, two daily doses, control 17,748","7,500 pg/g liver"
same,"TNF-α (%) liver, normalized to control (=100)",TNF-α [1]; [4],103 ± 23%
same,reduction in plasma TNF-α levels,"TNF-α [2]; pH-sensitive liposomes, 2 doses, LPS 48 h after last injection, vs empty liposomes",68%
same,"plasma TNF-α, absolute mean","TNF-α [2]; pH-sensitive liposomes, two daily doses, control 34,375","9,731 pg/ml plasma"
same,"TNF-α (%) plasma, normalized to control (=100)",TNF-α [2]; [4],93 ± 28%
same,"reduction in TNF-α mRNA levels, spleen",TNF-α mRNA,36.5%
same,"reduction in steady-state levels of TNF-α mRNA, liver",TNF-α mRNA,35%
same,inhibition of LPS-stimulated TNF-α production,TNF-α [3],> 90%
